Nine compounds from PubChem BioAssay AID1259411 (Chemical Carcinogenesis Research Information System (CCRIS), 2018) can be followed below.

This data set concerns rodent carcinogenicity bioassays, tumor incidence. The data set can be described thus: CCRIS carcinogenicity studies. A digest of the protocol:
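NCI-built, expert-reviewed records of carcinogenicity and related test outcomes (mutagenicity, tumor promotion/inhibition) compiled from published and report sources, historical span 1985-2011, not updated.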

The source made the active and inactive calls. No rule for the calls is given here.

As to `Nc1c(Br)cc(Br)c2c1C(=O)c1ccccc1C2=O`, the carcinogen call (Species: MOUSE, Strain/Sex: B6C3F1/FEMALE, Route: ORAL, Dose: 0, 10000, 20000 PPM IN DIET FOR 104 WK (STUDY DURATION: 106 WK), Dose: 0, 10000, 20000 PPM IN DIET FOR 104 WK (STUDY DURATION: 106 WK), Tumor Site: Type of Lesion: LIVER: HEPATOCELLULAR ADENOMA, HEPATOCELLULAR CARCINOMA, FORESTOMACH: SQUAMOUS CELL ADENOMA, SQUAMOUS CELL CARCINOMA, LU, Tumor Site: Type of Lesion: LIVER: HEPATOCELLULAR ADENOMA, HEPATOCELLULAR CARCINOMA, FORESTOMACH: SQUAMOUS CELL ADENOMA, SQUAMOUS CELL CARCINOMA, LU) is “active; positive”; the carcinogen call (Species: MOUSE, Strain/Sex: B6C3F1/MALE, Route: ORAL, Dose: 0, 10000, 20000 PPM IN DIET FOR 104 WK (STUDY DURATION: 106 WK), Dose: 0, 10000, 20000 PPM IN DIET FOR 104 WK (STUDY DURATION: 106 WK), Tumor Site: Type of Lesion: LIVER: HEPATOCELLULAR ADENOMA, HEPATOCELLULAR CARCINOMA, HEPATOBLASTOMA, FORESTOMACH: SQUAMOUS CELL PAPILLOMA, SQUAMOUS) was “active; positive”; the carcinogen call (Species: RAT, Strain/Sex: F344/FEMALE, Route: ORAL, Dose: 0, 2000, 5000, 10000 PPM IN DIET FOR UP TO 104 WK (STUDY DURATION: 106 WK), Dose: 0, 2000, 5000, 10000 PPM IN DIET FOR UP TO 104 WK (STUDY DURATION: 106 WK), Tumor Site: Type of Lesion: LIVER: HEPATOCELLULAR ADENOMA, HEPATOCELLULAR CARCINOMA, HEPATOCHOLANGIOCARCINOMA, LARGE INTESTINE: ADENOMA, CARCINOMA;, Tumor Site: Type of Lesion: LIVER: HEPATOCELLULAR ADENOMA, HEPATOCELLULAR CARCINOMA, HEPATOCHOLANGIOCARCINOMA, LARGE INTESTINE: ADENOMA, CARCINOMA) is “active; positive”; the carcinogen call (Species: RAT, Strain/Sex: F344/MALE, Route: ORAL, Dose: 0, 2000, 5000, 10000 PPM IN DIET FOR UP TO 104 WK (STUDY DURATION: 106 WK), Dose: 0, 2000, 5000, 10000 PPM IN DIET FOR UP TO 104 WK (STUDY DURATION: 106 WK), Tumor Site: Type of Lesion: LIVER: HEPATOCELLULAR ADENOMA, HEPATOCELLULAR CARCINOMA, HEPATOCHOLANGIOCARCINOMA, LARGE INTESTINE: ADENOMA, CARCINOMA;, Tumor Site: Type of Lesion: LIVER: HEPATOCELLULAR ADENOMA, HEPATOCELLULAR CARCINOMA, HEPATOCHOLANGIOCARCINOMA, LARGE INTESTINE: ADENOMA, CARCINOMA) was “active; positive”.

Regarding `CCOP(=S)(OCC)Oc1nc(Cl)c(Cl)cc1Cl`, the carcinogen call was “inactive; negative (study details not given in source; purity 99.6%)” (Species: Mouse, Strain/Sex: CD-1/Female (59/group), Route: Oral, Dose: 0, 5, 50, 250 ppm in diet for 79 wk, Dose: 0, 5, 50, 250 ppm in diet for 79 wk); “inactive; negative (study details not given in source; purity 99.6%)” (Species: Mouse, Strain/Sex: CD-1/Male (59/group), Route: Oral, Dose: 0, 5, 50, 250 ppm in diet for 79 wk, Dose: 0, 5, 50, 250 ppm in diet for 79 wk); “inactive; negative” (Species: RAT, Strain/Sex: F344/FEMALE, Route: ORAL, Dose: 0, 0.05, 0.1, 1, 10 MG/KG BW/D IN DIET FOR 104 WK (STUDY DURATION: 104 WK), Dose: 0, 0.05, 0.1, 1, 10 MG/KG BW/D IN DIET FOR 104 WK (STUDY DURATION: 104 WK)); “inactive; negative” (Species: RAT, Strain/Sex: F344/MALE, Route: ORAL, Dose: 0, 0.05, 0.1, 1, 10 MG/KG BW/D IN DIET FOR 104 WK (STUDY DURATION: 104 WK), Dose: 0, 0.05, 0.1, 1, 10 MG/KG BW/D IN DIET FOR 104 WK (STUDY DURATION: 104 WK)).

In the case of `Cc1ccc2cc3c(ccc4ccccc43)c3c2c1CC3O` (stereo unspecified), for the setting “Species: RAT, Strain/Sex: SPRAGUE-DAWLEY/FEMALE, Route: SUBCUTANEOUS, Dose: 0, 0.2 UMOL IN 0.1 ML SESAME OIL:DMSO (9:1) 3/WK FOR 20 DOSES (STUDY DURATION: 52 WK), Tumor Site: Type of Lesion: INJECTION SITE: SARCOMA”, the carcinogen call is “active; positive”.

Take `C[C@]12CC[C@@H]3c4ccc(OC(=O)c5ccccc5)cc4CC[C@H]3[C@@H]1CC[C@@H]2O`: the carcinogen call by setting is: (Species: MOUSE, Route: SUBCUTANEOUS, Tumor Site: Type of Lesion: TESTES, PITUITARY GLAND, CERVIX, UTERUS, Tumor Site: Type of Lesion: TESTES, PITUITARY GLAND, CERVIX, UTERUS) “active; positive”; (Species: RAT, Route: SUBCUTANEOUS IMPLANT, Tumor Site: Type of Lesion: PITUITARY GLAND) “active; positive”.

As for `C/C=C/c1cc(OC)c(OC)cc1OC`, the carcinogen call runs as follows: (Species: MOUSE, Strain/Sex: B6C3F1/MALE, Route: INTRAPERITONEAL, Dose: 0, 0.25, 0.5 UMOL/G BW ONCE (STUDY DURATION: 10-11 MONTHS), Dose: 0, 0.25, 0.5 UMOL/G BW ONCE (STUDY DURATION: 10-11 MONTHS), Tumor Site: Type of Lesion: LIVER: HEPATOMA) “active; positive”; (Species: MOUSE, Strain/Sex: CD-1/FEMALE, Route: DERMAL, Dose: 0, 5 UMOL 1X/WK FOR 3 WK BEGINNING 24 HR POST FIRST TPA DOSE (2.5 UG IN 0.1 ML ACETONE), FOLLOWED BY 2.5 UG TPA IN 0.1 M) “inactive; negative”.

With `O=C(O)CNCP(=O)(O)O`, the carcinogen call runs as follows: (Species: RAT, Strain/Sex: WISTAR/FEMALE, Route: ORAL, Dose: 0, 300, 900, 2700 MG/L IN DRINKING WATER FOR 2 YR (STUDY DURATION: 2 YR), Dose: 0, 300, 900, 2700 MG/L IN DRINKING WATER FOR 2 YR (STUDY DURATION: 2 YR)) “inactive; negative”; (Species: RAT, Strain/Sex: WISTAR/MALE, Route: ORAL, Dose: 0, 300, 900, 2700 MG/L IN DRINKING WATER FOR 2 YR (STUDY DURATION: 2 YR), Dose: 0, 300, 900, 2700 MG/L IN DRINKING WATER FOR 2 YR (STUDY DURATION: 2 YR)) “inactive; negative”; (Species: Rat, Strain/Sex: Sprague-Dawley/Female (50/Group), Route: Oral, Dose: 0, 2000, 8000, 20,000 ppm of 96.5% glyphosate, isopropylamine salt in diet for 24 mo, study duration 24 mo, Dose: 0, 2000, 8000, 20,000 ppm of 96.5% glyphosate, isopropylamine salt in diet for 24 mo, study duration 24 mo, Tumor Site: Type of Lesion: Adrenal cortex: carcinoma (3/50 in high dose group vs 0 in all other groups)) “active; positive. (department of pesticides regulation reviewer describes as a possible”; (Species: Rat, Strain/Sex: Sprague-Dawley/Male (50/Group), Route: Oral, Dose: 0, 2000, 8000, 20,000 ppm of 96.5% glyphosate, isopropylamine salt in diet for 24 mo, study duration 24 mo, Dose: 0, 2000, 8000, 20,000 ppm of 96.5% glyphosate, isopropylamine salt in diet for 24 mo, study duration 24 mo) “inactive; negative”.

As to `CC1CC(=O)O1` (stereo unspecified), the carcinogen call (Species: MOUSE, Route: DERMAL, Tumor Site: Type of Lesion: INTEGUMENTARY SYSTEM (SKIN)) is “active; positive”; the carcinogen call (Species: MOUSE, Route: SUBCUTANEOUS, Tumor Site: Type of Lesion: INJECTION SITE) is “active; positive”; the carcinogen call (Species: RAT, Route: GAVAGE, Tumor Site: Type of Lesion: FORESTOMACH) was “active; positive”; the carcinogen call (Species: RAT, Route: SUBCUTANEOUS, Tumor Site: Type of Lesion: INJECTION SITE) is “active; positive”.

As to `COCCOC1=C(N2CC2)C(=O)C(OCCOC)=C(N2CC2)C1=O`, the carcinogen call (Species: MOUSE, Route: INTRAPERITONEAL, Tumor Site: Type of Lesion: LUNG) is “active; positive”.

Take `NS(=O)(=O)c1cc(C(=O)O)c(NCc2ccco2)cc1Cl`: the carcinogen call reads like this: (Species: MOUSE, Strain/Sex: B6C3F1/FEMALE, Route: ORAL, Dose: 0, 700, 1400 PPM IN FEED FOR 104 WK (STUDY DURATION: 107 WK), Dose: 0, 700, 1400 PPM IN FEED FOR 104 WK (STUDY DURATION: 107 WK), Tumor Site: Type of Lesion: MAMMARY GLAND: MIXED TUMOR, MALIGNANT, MAMMARY GLAND: MIXED TUMOR, MALIGNANT OR ACINAR CELL CARCINOMA) “active; positive”; (Species: MOUSE, Strain/Sex: B6C3F1/MALE, Route: ORAL, Dose: 0, 700, 1400 PPM IN FEED FOR 104 WK (STUDY DURATION: 107 WK), Dose: 0, 700, 1400 PPM IN FEED FOR 104 WK (STUDY DURATION: 107 WK)) “inactive; negative”; (Species: RAT, Strain/Sex: F344/FEMALE, Route: ORAL, Dose: 0, 350, 700 PPM IN FEED FOR 103 WK (STUDY DURATION: 106 WK), Dose: 0, 350, 700 PPM IN FEED FOR 103 WK (STUDY DURATION: 106 WK)) “inactive; negative”; (Species: RAT, Strain/Sex: F344/MALE, Route: ORAL, Dose: 0, 350, 700 PPM IN FEED FOR 103 WK (STUDY DURATION: 106 WK), Dose: 0, 350, 700 PPM IN FEED FOR 103 WK (STUDY DURATION: 106 WK), Tumor Site: Type of Lesion: KIDNEY: RENAL TUBULE CELL ADENOMA OR ADENOCARCINOMA, BRAIN: MENINGIOMA) “equivocal”.
